Results: patent US20250154238A1, “METHODS AND COMPOSITIONS FOR TREATING AND PREVENTING FIBROSIS” (YALE UNIVERSITY, priority 2022, published 2025)

What was measured:
[1] = tested on: lung explants from a patient with IPF; assay: IPF patient lung explant culture, gene expression and secreted proteins; assay type: cell-based, human; settings: 10 days; nintedanib 0.1 μM, Alk5i 10 μM, Ereg Ab 2.5 μg/ml
Description: FIGS. 13A-13I show epiregulin inhibition reduces mouse and human lung fibrosis. (FIGS. 13A-13E) As diagramed in (FIG. 13A), 10 days after intratracheal bleomycin mice began treatment with epiregulin antibody for two weeks prior to euthanasia. Lungs were analyzed for histology (FIG. 13B), modified Ashcroft score (FIG. 13C), hydroxyproline (FIG. 13D) and epiregulin gene expression (FIG. 13E), n=6 (PBS), 11 (BLM), and 7 (Ereg Ab). Histology images in (FIG. 13B) are 10× magnification with 200 μm scale bars and IHC images are 40× magnification with 40 μm scale bars. […] The same tissue was cut into cubes and cultured for 10 days in the presence of the multikinase inhibitor nintedanib 0.1 μM (Nin), the Alk5 inhibitor A-1544033 (IN-1130) 10 μM (Alk5i), epiregulin antibody 2.5 μg/ml (Ereg Ab) or non-treated vehicle control (NT). (FIGS. 13G-13I) Relative expression of indicated genes, n=4 per group. (FIG. 13I) Protein secretion of indicated genes measured by ELISA, n=8 per group. ELISA samples with poor signal and qPCR outliers identified by Grubbs's test with alpha-0.05 were excluded. Data are means±SD (ns, not significant. * P<0.05, ** P<0.01, **** P<0.0001) analyzed with one-way analysis of variance (ANOVA) with Tukey multiple-comparisons test (FIGS. 13C-13E) and Dunnett's multiple-comparisons test (FIGS. 13G-13I).
Pathologic assessment confirmed the diagnosis of early IPF, as evidenced by the presence of fibroblastic foci and hyperplasia of alveolar type II epithelial cells as shown in FIG. 13F. Lung tissue was plated in 24 well plates and cultured for 10 days with media changes every two days. The impact of epiregulin antibody compared to the multikinase inhibitor nintedanib and a transforming growth factor beta type I receptor TGF-βRI/Alk5 small molecule inhibitor was assessed by measuring disease relevant endpoints in gene expression and protein production. At the gene level, reduction in epiregulin expression was observed which was similar to that seen in mouse lung by both epiregulin and TGF-βRI inhibition (FIG. 13G, left panel). […] ECM-remodeling and inflammation. […]
For lung explants, human IPF lung (person) was obtained from the National Disease Research Interchange (NDRI), kept cold, and received <24 hours after cross-clamp. […] After 10 days, culture supernatants were collected, pre-cleared at 4000× g (4° C. 10 mins), transferred to a clean 96 well polypropylene plate and stored at −80° C., until protein endpoints measured. Measured secreted proteins include: human MCP-1 V-Plex (MesoScale Discovery, K151NND-1), human TIMP-1 (MesoScale Discovery, K151JFC-1) and human pro-collagen 1α1 DuoSet Elisa (R&D systems, DY6220-05). All proteins were assayed and analyzed in accordance with their respective assay product datasheets. […]

[2] = data from European Medicines Agency; tocilizumab from reference 80; cited from earlier work
[3] = data from European Medicines Agency; read-out: KD (×10^−12); cited from earlier work

For `Cc1cccc(-c2[nH]c(Cc3cccc(C(N)=O)c3)nc2-c2ccc3nccnc3c2)n1` [TGF-βRI/Alk5 small molecule inhibitor], the “COL1A1 gene expression, IPF lung explant” value [1] was “significantly reduced expression”, the “epiregulin gene expression, IPF lung explant” value [1] was “reduction” and the “pro-COL1A1 protein level, IPF lung explant” value [1] was “significant reduction”.

In the case of Adalimumab, the IC50 [2] is given as 0.1 to 1 nM and the Kd [3] is given as 0.058 to 0.087 nM.

For “Rizankizumab: FDA-approved monoclonal antibody medication”, the IC50 [2] is listed as 0.024 nM and the Kd [3] is listed as 0.029 nM.

With `COC(=O)c1ccc2c(c1)NC(=O)/C2=C(\Nc1ccc(N(C)C(=O)CN2CCN(C)CC2)cc1)c1ccccc1` [nintedanib] the “pro-COL1A1 protein level, IPF lung explant” value [1] was “significant reduction”.

In the case of “Tocilizumab: FDA-approved monoclonal antibody medication”, the IC50 [2] is given as 0.09 nM and the Kd [3] is given as 2.5 nM.
